From patent publication US12227488B2, “Small molecule degraders of Helios and methods of use” (DANA-FARBER CANCER INSTITUTE, INC., priority 2018, dated 2025)

Experiments:
CRBN and Helios (IKZF2) = biological target: T1, CRBN and Helios (IKZF2) (Homo sapiens, UniProt Q96SW2+Q9UKS7); test: TR-FRET dimerization assay (CRBN-IKZF2 ternary complex formation); format: binding; settings: n=1
T1 construct: His (N); Strep (N)
In short: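 BODIPY-labeled DDB1ΔB-CRBN and in vitro biotinylated IKZF2 were treated with increasing compound concentrations plus tracer Terbium-Streptavidin and incubated 15 min at rt. Recruitment was quantified as the 520/490 nm TR-FRET ratio; values are single measurements (n=1), each averaged from at least three technical replicates.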

IKZF1 = biological target: T2, IKZF1 (Homo sapiens, UniProt Q13422); test: Cellular degradation assay, eGFP-IKZF1Δ fusion with mCherry reporter in Flp-In 293 cells; format: cell-based; settings: 5 h incubation, n=1
T2 construct: expressed in transfected cells; host or cells: Flp-In 293
T2 sequence (Q13422 83-213 isoform Q13422-7 limits assumed): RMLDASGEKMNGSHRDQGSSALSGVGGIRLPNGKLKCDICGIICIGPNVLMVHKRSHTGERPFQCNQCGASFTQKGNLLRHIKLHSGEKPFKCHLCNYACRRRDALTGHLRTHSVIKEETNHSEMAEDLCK
T2 sequence (Q96SW2 whole entry partner, the tested form may be a part): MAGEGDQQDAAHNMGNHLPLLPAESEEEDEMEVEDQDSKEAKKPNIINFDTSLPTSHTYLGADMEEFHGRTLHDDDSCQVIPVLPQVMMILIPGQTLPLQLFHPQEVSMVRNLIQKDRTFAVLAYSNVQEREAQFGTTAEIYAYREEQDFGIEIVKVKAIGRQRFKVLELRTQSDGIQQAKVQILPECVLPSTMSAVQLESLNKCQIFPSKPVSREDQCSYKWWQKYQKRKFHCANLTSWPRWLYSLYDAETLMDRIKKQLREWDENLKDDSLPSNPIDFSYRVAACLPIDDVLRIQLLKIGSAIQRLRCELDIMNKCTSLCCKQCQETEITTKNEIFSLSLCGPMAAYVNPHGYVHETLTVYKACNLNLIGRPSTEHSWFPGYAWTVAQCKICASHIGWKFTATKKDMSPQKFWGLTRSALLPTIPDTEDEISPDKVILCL
T2 sequence (Q16531 2-1140 partner limits assumed): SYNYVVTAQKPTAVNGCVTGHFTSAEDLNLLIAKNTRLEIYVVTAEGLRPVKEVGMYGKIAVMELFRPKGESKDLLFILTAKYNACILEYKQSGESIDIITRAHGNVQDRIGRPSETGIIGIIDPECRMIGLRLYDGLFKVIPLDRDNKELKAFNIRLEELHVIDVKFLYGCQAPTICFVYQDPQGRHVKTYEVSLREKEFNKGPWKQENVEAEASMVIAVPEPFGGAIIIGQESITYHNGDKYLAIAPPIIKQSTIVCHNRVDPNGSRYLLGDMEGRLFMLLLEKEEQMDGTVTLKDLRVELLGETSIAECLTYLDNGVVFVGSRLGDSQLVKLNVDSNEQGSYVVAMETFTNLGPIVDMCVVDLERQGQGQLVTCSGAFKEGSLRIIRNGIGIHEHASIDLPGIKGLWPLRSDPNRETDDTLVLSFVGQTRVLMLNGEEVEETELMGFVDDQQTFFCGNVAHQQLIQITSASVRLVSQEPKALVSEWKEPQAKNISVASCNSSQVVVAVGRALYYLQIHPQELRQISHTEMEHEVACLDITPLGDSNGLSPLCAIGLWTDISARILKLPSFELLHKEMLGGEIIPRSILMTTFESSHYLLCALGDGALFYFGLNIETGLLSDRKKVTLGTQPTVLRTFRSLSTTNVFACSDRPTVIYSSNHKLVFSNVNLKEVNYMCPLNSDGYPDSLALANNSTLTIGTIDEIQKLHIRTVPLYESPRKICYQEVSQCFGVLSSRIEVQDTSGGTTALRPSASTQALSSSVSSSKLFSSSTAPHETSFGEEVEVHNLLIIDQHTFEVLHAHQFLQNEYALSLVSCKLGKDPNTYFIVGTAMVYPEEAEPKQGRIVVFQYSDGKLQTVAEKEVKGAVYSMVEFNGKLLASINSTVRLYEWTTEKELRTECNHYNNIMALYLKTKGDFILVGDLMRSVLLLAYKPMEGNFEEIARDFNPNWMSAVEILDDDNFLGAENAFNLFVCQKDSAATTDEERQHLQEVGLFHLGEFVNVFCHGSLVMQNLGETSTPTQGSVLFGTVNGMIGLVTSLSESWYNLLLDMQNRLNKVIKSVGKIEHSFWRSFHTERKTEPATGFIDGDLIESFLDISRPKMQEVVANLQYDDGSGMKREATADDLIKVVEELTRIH
In short: (§1)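 Flp-In 293 cells stably expressing eGFP-tagged degron fusions with P2A-mCherry reporter were treated with compound titrations (0.5% DMSO) for 5 hours. Imaging quantified GFP-positive/mCherry-positive cell fraction per well; DC50 at 5 h from nonlinear variable-slope fit.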

GSPT1 = GSPT1 (Homo sapiens, UniProt P15170+Q96SW2); test: Cellular degradation assay, eGFP-GSPT1 fusion with mCherry reporter in Flp-In 293 cells; format: cell-based; set-up: expressed in transfected cells; host or cells: Flp-In 293; settings: 5 h incubation, n=1
Sequence of GSPT1 (P15170 whole entry, the tested form may be a part): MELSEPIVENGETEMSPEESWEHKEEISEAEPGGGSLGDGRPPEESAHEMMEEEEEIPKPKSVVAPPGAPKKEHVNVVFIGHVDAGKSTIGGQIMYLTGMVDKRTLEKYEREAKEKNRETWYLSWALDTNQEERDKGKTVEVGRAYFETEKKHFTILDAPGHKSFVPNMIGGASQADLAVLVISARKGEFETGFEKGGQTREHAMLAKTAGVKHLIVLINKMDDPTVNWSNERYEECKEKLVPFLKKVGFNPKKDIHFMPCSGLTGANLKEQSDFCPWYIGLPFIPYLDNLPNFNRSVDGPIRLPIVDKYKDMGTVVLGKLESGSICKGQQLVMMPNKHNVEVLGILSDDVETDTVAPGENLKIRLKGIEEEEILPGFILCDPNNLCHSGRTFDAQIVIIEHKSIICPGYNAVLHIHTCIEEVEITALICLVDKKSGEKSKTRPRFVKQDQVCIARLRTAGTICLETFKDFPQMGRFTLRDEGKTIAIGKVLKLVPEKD
Sequence of GSPT1 (Q96SW2 whole entry, the tested form may be a part): as the sequence (Q96SW2 whole entry partner, the tested form may be a part) above
Sequence of GSPT1 (Q16531 whole entry partner, the tested form may be a part): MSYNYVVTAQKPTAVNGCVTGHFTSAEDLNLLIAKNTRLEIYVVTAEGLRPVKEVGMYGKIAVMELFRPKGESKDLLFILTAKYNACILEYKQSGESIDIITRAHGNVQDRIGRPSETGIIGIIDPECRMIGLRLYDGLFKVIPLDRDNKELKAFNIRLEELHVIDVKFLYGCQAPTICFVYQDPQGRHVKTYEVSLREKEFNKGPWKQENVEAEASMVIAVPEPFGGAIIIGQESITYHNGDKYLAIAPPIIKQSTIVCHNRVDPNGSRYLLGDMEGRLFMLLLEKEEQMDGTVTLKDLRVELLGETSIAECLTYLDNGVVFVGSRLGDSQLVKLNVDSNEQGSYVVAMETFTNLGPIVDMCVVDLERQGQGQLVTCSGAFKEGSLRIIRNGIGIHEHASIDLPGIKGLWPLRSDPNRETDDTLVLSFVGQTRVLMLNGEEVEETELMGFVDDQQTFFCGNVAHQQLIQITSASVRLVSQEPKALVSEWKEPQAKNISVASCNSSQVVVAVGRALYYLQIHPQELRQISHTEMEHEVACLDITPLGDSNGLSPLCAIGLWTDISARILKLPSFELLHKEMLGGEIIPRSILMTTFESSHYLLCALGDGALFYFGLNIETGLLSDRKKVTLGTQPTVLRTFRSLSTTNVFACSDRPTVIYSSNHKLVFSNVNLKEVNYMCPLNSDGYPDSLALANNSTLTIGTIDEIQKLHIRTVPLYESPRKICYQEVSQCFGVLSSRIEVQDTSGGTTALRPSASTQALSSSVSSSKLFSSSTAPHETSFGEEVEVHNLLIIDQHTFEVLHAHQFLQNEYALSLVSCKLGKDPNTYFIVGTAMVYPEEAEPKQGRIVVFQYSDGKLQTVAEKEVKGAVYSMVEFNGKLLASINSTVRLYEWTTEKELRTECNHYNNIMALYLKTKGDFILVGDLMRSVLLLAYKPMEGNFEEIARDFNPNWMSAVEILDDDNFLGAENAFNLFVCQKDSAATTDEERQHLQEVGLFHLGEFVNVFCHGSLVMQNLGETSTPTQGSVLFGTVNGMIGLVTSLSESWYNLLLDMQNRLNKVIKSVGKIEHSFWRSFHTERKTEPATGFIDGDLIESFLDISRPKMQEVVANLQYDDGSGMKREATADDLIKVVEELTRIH
In short: as §1

IKZF2 = test: Cellular degradation assay, eGFP-IKZF2Δ fusion with mCherry reporter in Flp-In 293 cells; format: cell-based; settings: 5 h incubation, n=1
In short: as §1

SALL4 ZNF1-2 = biological target: T3, SALL4 ZNF1-2 (Homo sapiens, UniProt Q96SW2+Q9UJQ4); test: Cellular degradation assay, eGFP-SALL4 ZnF1-2 fusion with mCherry reporter in Flp-In 293 cells; format: cell-based; settings: 5 h incubation, n=1
T3 construct: IKZF1Δ, IKZF2Δ, GSPT1 and SALL4 ZnF1-2 were subcloned; expressed in transfected cells; host or cells: Flp-In 293
T3 sequence (Q9UJQ4 378-438 limits assumed): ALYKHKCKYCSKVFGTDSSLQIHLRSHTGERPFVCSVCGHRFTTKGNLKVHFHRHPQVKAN
T3 sequence (Q96SW2 whole entry, the tested form may be a part): as the sequence (Q96SW2 whole entry partner, the tested form may be a part) above
T3 sequence (Q16531 whole entry partner, the tested form may be a part): as the sequence (Q16531 whole entry partner, the tested form may be a part) above
Experimental: IKZF1Δ, IKZF2Δ, GSPT1 and SALL4 ZnF1-2 were subcloned into mammalian pcDNA5/FRT Vector (Ampicillin and Hygromycin B resistant) modified to contain MCS-eGFP-P2A-mCherry. Stable cell lines expressing eGFP-protein fusion and mCherry reporter were generated using Flp-In™ 293 system. Plasmid (0.3 μg) and pOG44 (4.7 μg) DNA were preincubated in 100 μL of Opti-MEM® I (Gibco®, Life Technologies™) media containing 0.05 mg/mL Lipofectamine® 2000 (Invitrogen™) for 20 min and added to Flp-In™ 293 cells containing 1.9 ml of DMEM media (Gibco®, Life Technologies™) per well in a 6-well plate format (Falcon, 353046). Cells were propagated after 48 h and transferred into a 10 cm^2 plate (Corning, 430165) in DMEM media containing 50 μg/mL of Hygromycin B (REF 10687010, Invitrogen™) as a selection marker. Following 2-3 passage cycle, FACS (FACSAria™ II, BD) was used to enrich for cells expressing eGFP and mCherry. Cells stably expressing the IKZF1Δ, IKZF2Δ, GSPT1 or SALL4 Znf1-2 GFP fusions with mCherry reporter were seeded at 30-50% confluency in 384-well plates with 50 μL FluoroBrite™ DMEM media (Thermo Fisher Scientific, A18967) containing 10% FBS per well a day before compound treatment. Compound titrations were dispensed using a D300e Digital Dispenser (HP), normalized to 0.5% DMSO, and incubated with cells for 5 hours. The assay plate was imaged immediately using an Acumen® High Content Imager (TTP Labtech) with 488 nm and 561 nm lasers in […] grid per well format.
The resulting images were analyzed using CellProfiler™. A series of image analysis steps (‘image analysis pipeline’) was constructed. First, the red and green channels were aligned and cropped to target the middle of each well (to avoid analysis of heavily clumped cells at the edges), and a background illumination function was calculated for both red and green channels of each well individually and subtracted to correct for illumination variations across the 384-well plate from various sources of error. An additional step was then applied to the green channel to suppress the analysis of large auto fluorescent artifacts and enhance the analysis of cell specific fluorescence by way of selecting for objects under a given size, 30 A.U., and with a given shape, speckles. mCherry-positive cells were then identified in the red channel filtering for objects between 8-60 pixels in diameter and using intensity to distinguish between clumped objects. The green channel was then segmented into GFP positive and negative areas and objects were labeled as GFP positive if at least 40% of it overlapped with a GFP positive area. The fraction of GFP-positive cells/mCherry-positive cells in each well was then calculated, and the green and red images were rescaled for visualization.

[1] = compound concentration 6.6667E−05
[2] = compound concentration 6.6667E−06
[3] = compound concentration 6.6667E−07 (667 nM)
[4] = compound concentration 2.00E−05
[5] = compound concentration 2.00E−06
[6] = compound concentration 2.00E−07

T1 sequence (Q96SW2 whole entry): as the sequence (Q96SW2 whole entry partner, the tested form may be a part) above
T1 sequence (Q9UKS7 whole entry): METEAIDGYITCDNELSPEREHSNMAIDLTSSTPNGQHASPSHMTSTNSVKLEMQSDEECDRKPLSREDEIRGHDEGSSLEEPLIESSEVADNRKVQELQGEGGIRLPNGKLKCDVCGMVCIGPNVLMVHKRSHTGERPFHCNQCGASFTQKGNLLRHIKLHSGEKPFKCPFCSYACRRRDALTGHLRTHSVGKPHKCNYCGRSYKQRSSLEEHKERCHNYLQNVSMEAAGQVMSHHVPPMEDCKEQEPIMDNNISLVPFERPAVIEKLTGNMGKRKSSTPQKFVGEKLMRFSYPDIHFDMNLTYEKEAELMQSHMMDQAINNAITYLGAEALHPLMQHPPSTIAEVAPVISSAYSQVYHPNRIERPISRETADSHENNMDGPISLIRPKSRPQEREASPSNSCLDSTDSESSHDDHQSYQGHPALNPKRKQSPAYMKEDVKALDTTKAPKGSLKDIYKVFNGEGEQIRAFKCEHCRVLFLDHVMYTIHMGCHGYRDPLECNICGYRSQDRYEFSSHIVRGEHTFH

Row | SMILES | TR-FRET-IKZF2 (Normalized to CC-885) (CRBN and Helios (IKZF2); [1]) | TR-FRET-IKZF2 (Normalized to CC-885) (CRBN and Helios (IKZF2); [2]) | TR-FRET-IKZF2 (Normalized to CC-885) (CRBN and Helios (IKZF2); [3]) | IKZF1 GFP/RFP Relative Abundance (IKZF1; [4]) | IKZF1 GFP/RFP Relative Abundance (IKZF1; [5]) | IKZF1 GFP/RFP Relative Abundance (IKZF1; [6]) | GSPT1 GFP/RFP Relative Abundance (GSPT1; [4]) | GSPT1 GFP/RFP Relative Abundance (GSPT1; [5]) | GSPT1 GFP/RFP Relative Abundance (GSPT1; [6]) | IKZF2 GFP/RFP Relative Abundance (IKZF2; [4]) | IKZF2 GFP/RFP Relative Abundance (IKZF2; [5]) | IKZF2 GFP/RFP Relative Abundance (IKZF2; [6]) | SALL4 ZNF1-2 GFP/RFP Relative Abundance (SALL4 ZNF1-2; [4]) | SALL4 ZNF1-2 GFP/RFP Relative Abundance (SALL4 ZNF1-2; [5]) | SALL4 ZNF1-2 GFP/RFP Relative Abundance (SALL4 ZNF1-2; [6])
1 | COC(=O)CCNC1=CC(=O)N(C2CCC(=O)NC2=O)C1=O (stereo not drawn) [Compound 14, Methyl 3-((1-(2,6-dioxopiperidin-3-yl)-2,5-dioxo-2,5-dihydro-1H-pyrrol-3-yl)amino)propanoate] | 0.046 | 0.040 | 0.022 | 1.033 | 1.031 | 1.043 | 1.058 | 1.018 | 0.915 | 1.022 | 0.982 | 1.040 | 0.955 | 0.944 | 0.983
2 | O=C1CCC(N2C(=O)C=C(Nc3cnc4ccccc4c3)C2=O)C(=O)N1 (stereo not drawn) [Compound 27, 3-(2,5-dioxo-3-(quinolin-3-ylamino)-2,5-dihydro-1H-pyrrol-1-yl)piperidine-2,6-dione] | 0.137 | 0.105 | 0.084 | 0.701 | 0.776 | 0.801 | 0.881 | 1.083 | 0.987 | 1.004 | 0.990 | 0.931 | 1.026 | 1.005 | 0.913
3 | O=C1CCC(N2C(=O)C=C(Nc3nc[nH]n3)C2=O)C(=O)N1 (stereo not drawn) [Compound 18, 3-(3-((1H-1,2,4-triazol-3-yl)amino)-2,5-dioxo-2,5-dihydro-1H-pyrrol-1-yl)piperidine-2,6-dione] | 0.062 | 0.018 | 0.024 | 0.943 | 0.833 | 0.847 | 0.880 | 0.650 | 0.498 | 1.055 | 0.992 | 0.990 | 0.967 | 0.999 | 0.904
4 | Cc1ccc(NC2=CC(=O)N(C3CCC(=O)NC3=O)C2=O)cc1C (stereo not drawn) [Compound 24, 3-(3-((3,4-dimethylphenyl)amino)-2,5-dioxo-2,5-dihydro-1H-pyrrol-1-yl)piperidine-2,6-dione] | 0.391 | 0.344 | 0.282 | 0.236 | 0.342 | 0.369 | 1.153 | 1.221 | 1.218 | 0.959 | 0.954 | 1.038 | 0.937 | 0.941 | 0.942
5 | CN(C)C(=O)Cc1cccc(NC2=CC(=O)N(C3CCC(=O)NC3=O)C2=O)c1 (stereo not drawn) [Compound 35, 2-(3-((1-(2,6-dioxopiperidin-3-yl)-2,5-dioxo-2,5-dihydro-1H-pyrrol-3-yl)amino)phenyl)-N,N-dimethylacetamide] | 0.520 | 0.447 | 0.402 | 0.154 | 0.181 | 0.182 | 0.975 | 1.074 | 0.938 | 0.667 | 0.709 | 0.806 | 0.928 | 0.903 | 0.888
6 | O=C1CCC(N2C(=O)C=C(Nc3cccc(-c4nnn[nH]4)c3)C2=O)C(=O)N1 (stereo not drawn) [Compound 23, 3-(3-((3-(1H-tetrazol-5-yl)phenyl)amino)-2,5-dioxo-2,5-dihydro-1H-pyrrol-1-yl)piperidine-2,6-dione] | 0.326 | 0.259 | 0.196 | 0.866 | 1.044 | 0.756 | 0.976 | 0.936 | 0.953 | 1.013 | 1.016 | 1.015 | 0.922 | 0.979 | 0.981
7 | O=C1CCC(N2C(=O)C=C(Nc3ccccc3)C2=O)C(=O)N1 (stereo not drawn) [Compound 2, 3-(2,5-dioxo-3-(phenylamino)-2,5-dihydro-1H-pyrrol-1-yl)piperidine-2,6-dione] | 0.386 | 0.306 | 0.286 | 0.143 | 0.143 | 0.147 | 0.763 | 0.903 | 0.930 | 0.878 | 0.920 | 0.864 | 0.724 | 0.762 | 0.774
8 | CCOC(=O)CNC1=CC(=O)N(C2CCC(=O)NC2=O)C1=O (stereo not drawn) [Compound 16, Ethyl (1-(2,6-dioxopiperidin-3-yl)-2,5-dioxo-2,5-dihydro-1H-pyrrol-3-yl)glycinate] | 0.032 | 0.028 | 0.018 | 1.070 | 1.011 | 1.053 | 0.978 | 0.876 | 1.006 | 0.987 | 1.015 | 1.006 | 1.001 | 1.007 | 1.013
